Test results reported in patent publication US6664231B1, “Anti-fungal peptides” (priority 1993, dated 2003).

Columns and labels:
Candida glabrata = test: Radial diffusion assay, Candida species (Table 2); type: cell-based
Method: (§1) The anti-fungal activity of Domain III derived peptides was also evaluated in vitro against a variety of fungal species, including Candida glabrata, Candida krusei, Candida lusitaniae, Candida parapsilosis, and Candida tropicalis. For these experiments, one colony of each of the above-listed Candida strains was picked from a Sabouraud's dextrose agar (SDA) plate and inoculated into 5 mL of Sabouraud's dextrose broth (SDB, 2% dextrose and 1% neopeptone) or, for C. krusei, Yeast Malt broth (YM, Becton Dickenson, Cockeysville, Md., cat no. BL 11405) in 12 mL polyproplyene snap-cap tubes. The tube cultures were incubated overnight with shaking at 37° C.
(§2) Cultures were harvested when the OD570 of a 1:10 dilution was greater than or equal to the following values: 0.083 for Candida glabrata, 0.154 for Candida krusei, 0.117 for Candida lusitaniae, 0.076 for Candida parapsilosis, and 0.192 for Candida tropicalis. Cells were centrifuged for 7 minutes in an Eppendorf microfuge at 3,000 rpm (about 1,500 g). The cell pellet was resuspended in 1 mL PBS and approximately 1×10^7 cells in about 0.5 mL were added to 10 mL of cooled underlay agar (3% SBD, 1% agarose, 0.02% Tween 20, 10 mM sodium phosphate buffer, pH 7.4 at about 45° C.). The suspension was poured into square petri plates, allowed to solidify, and wells cut as described above.
(§3) Peptides were two-fold serially diluted with D-PBS from about 20 μL of a starting concentration of approximately 1 mg/mL. Five μL of peptide dilution were added per well and allowed to diffuse for at least about 30 minutes into the agar at […] (to allow complete diffusion). Then 10 mL of molten overlayer agarose (6% SDB, 1% agarose, 10 mM sodium phosphate buffer, pH 7.4 at about 45° C.) were added and the plates were incubated inverted at […] overnight. Plates were stained with a dilute Coomassie solution, inhibition zones were measured with calipers and net areas were calculated, then converted to pmole values by PROBIT analysis.

Candida krusei = test: Radial diffusion assay, Candida species (Table 2); type: cell-based
Method: as §1, §2, §3

Candida lusitaniae = test: Radial diffusion assay, Candida species (Table 2); type: cell-based
Method: as §1, §2, §3

Candida parapsilosis = test: Radial diffusion assay, Candida species (Table 2); type: cell-based
Method: as §1, §2, §3

Candida tropicalis = test: Radial diffusion assay, Candida species (Table 2); type: cell-based
Method: as §1, §2, §3

in vitro = in vitro ADME, rat or human serum; conditions: serum, half-life of peptide in serum as detected by HPLC analysis; read-out: HPLC Peptide in Serum t ½ (converted)
Method: For these serum stability experiments, peptides were prepared by solid phase peptide sythesis and purified to 94% or greater purity as described in Example 1. Blood was collected from metaphane anesthesized rats by aortic bleed into Vacutainer™ tubes and allowed to clot at room temperature for approximately 30 minutes, then centrifuged at 3000 rpm (about 1000×g) for 10 minutes at room temperature and the serum aspirated. In addition, frozen human serum (North American Biologics, Inc., Miami, Fla., cat. no. 2140, lot no. 94115) was thawed at room temperature and filtered through a 0.45 μm membrane before use.
A 1 mg/mL solution of an exemplary XMP peptide to be tested was added to an equal volume of either rat or human serum described above and maintained at 37° C. At 0, 1, 2, and 4 hours, 100 μL were removed and processed by solid phase extraction for HPLC analysis as follows. Serum samples were prepared for HPLC using C-18 Sep-Pak cartridges (1 mL cartridge with 100 mg of sorbent, Waters Corp., Milford, Mass.). One hundred μL of serum sample were added to an equal volume of 1% TFA and mixed for 30 seconds on a Vortex mixer. The sample was then applied to a C-18 Sep-Pak cartridge that had been conditioned by washing with 1 mL of methanol followed by 1 mL Milli-Q water. Weakly reed components were eluted by washing with 1 mL of 0. 1% TFA. The bound peptide was eluted with two volumes of 250 μL 80% acetonitrile/0.065% TFA.
The material eluted from the Sep-Pak cartridge was analyzed on a Michrom Ultaafast Microprotein Analyzer equipped with a 150 mm×1 mm, 5μ particle, 300 Å pore C-8 Zorbax column. The column oven was set to 40° C., the flow rate was 100 μL/minute, and injection volumes were typically 5-10 μL. HPLC was performed using 5% acetonitrile/0.1% TFA in water as mobile phase A, and 80% acetonitrile/0.065% TFA as mobile phase B. The eluate was monitored spectiophotometrically at 214 nm. Peptide standards were dissolved in mobile phase A at 0. 1 mg/mL. The gradient was 25-35% B/10 minutes followed by a 5 minute wash step of 100% B and reequilibration at 25% B for 10 minutes.

[1] = tested on: C. albicans (SLU-1 and other strains); type: cell-based, Candida albicans
Method: In additional experiments, a fluorescence-activated cell sorter (FACS) based assay was developed to test the fungicidal activity of the peptides. […] Difco) agar. Several colonies were picked from the agar plate and inoculated into 5 mL of Sabouraud's Dextrose media in a sterile 10 mL polypropylene tube. The fungal cultures were incubated for about 18 hours at 30° C. […] The culture were centrifuged at 3000 rpm for 5 minutes (Sorvall RT 6000B). After centrifugation, the supernatant was decanted leaving the fungal pellets in the centrifuge tubes. The pellets were resuspended in 15 mL of SDB. Both suspensions were combined into one tube and mixed to generate a stock culture. […] After determining the concentration of the stock, appropriate dilutions were made with Sabouraud's Dextrose media to obtain 100 mL of 1×10^6 cell/mL. […] After the 1 hour incubation, all the tubes were centrifuged at 3000 rpm for 5 minutes. […] Louis, Mo.) in Dulbecco's PBS (DPBS, GIBCO, Grand Island, N.Y.) except the autofluorescence control, which was resuspended in DPBS alone. The tubes were mixed and incubated in the dark at room temperature for at least 20 minutes. […] The settings were adjusted appropriately to the following approximate parameters: Cells were analyzed (10,000 cells/tube) and their respective fluorescence determined. […] The population of dead (i.e., propidium iodide stained) fungal cells was determined by a fluorescence threshold between the negative control and positive control.

Compound | Anti-fungal activity: pmol/30 mm^2 zone, Candida glabrata (Candida glabrata) | Anti-fungal activity: pmol/30 mm^2 zone, Candida krusei (Candida krusei) | Anti-fungal activity: pmol/30 mm^2 zone, Candida lusitaniae (Candida lusitaniae) [pmol/30 mm^2 zone] | Anti-fungal activity: pmol/30 mm^2 zone, Candida parapsilosis (Candida parapsilosis) | Anti-fungal activity: pmol/30 mm^2 zone, Candida tropicalis (Candida tropicalis) [pmol/30 mm^2 zone] | half-life at 0.5 mg/mL (in vitro) [h] | Activity of peptides on C. albicans SLU-1, IC50 ([1]; Table 5, percentage of dead cells, 1 hour, 30° C.) [µg/mL] | Activity on various strains of C. albicans, IC50, 10231 ([1]; SLU-1 and other strains) [µg/mL] | Activity on various strains of C. albicans, IC50, 14053 ([1]; SLU-1 and other strains) [µg/mL] | Activity on various strains of C. albicans, IC50, 26555 ([1]; SLU-1 and other strains) [µg/mL] | Activity on various strains of C. albicans, IC50, 90028 ([1]; SLU-1 and other strains) [µg/mL] | Activity on various strains of C. albicans, IC50, SLU#1 ([1]; SLU-1 and other strains) [µg/mL]
H-KSKVGWLIQLFHKK-NH2 [XMP.13] | 1,022 pmol/30 mm^2 zone | 1,747 pmol/30 mm^2 zone | 746 | 1,502 pmol/30 mm^2 zone | 452 | 2.5 | – | – | – | – | – | –
C[C@@H]1[C@H](O)[C@@H](C)/C=C/C=C/C=C/C=C/C=C/C=C/C=C/[C@H](O[C@@H]2O[C@H](C)[C@@H](O)[C@H](N)[C@@H]2O)C[C@@H]2O[C@](O)(C[C@@H](O)C[C@@H](O)[C@H](O)CC[C@@H](O)C[C@@H](O)CC(=O)O[C@H]1C)C[C@H](O)[C@H]2C(=O)O [Amphotericin B, amphotericin B, reference compound] | <17 pmol/30 mm^2 zone | 120 pmol/30 mm^2 zone | 35 | 91 pmol/30 mm^2 zone | 108 | – | 79.36 | – | – | – | – | –
H-SKVKWLIQLFHKK-NH2 [XMP.284] | – | – | – | – | – | 4.2 | – | 1.86 | 0.50 | 0.59 | 1.08 | 0.31
